Patent US7820673B2, “Urea derivative, process for producing the same, and use” (Takeda Pharmaceutical Company Limited, priority 2003, dated 2010)
pIC50: −log10 of the molar value.

Target: human FXa (Homo sapiens, UniProt P00742)
Test: Human activated blood coagulation factor X (FXa) inhibitory action
Type: biochemical
Conditions: concentration inhibiting 50% of the FXa action; substrate S-2765, 37° C., absorbance at 405 nm
Description: (1) Human Activated Blood Coagulation Factor X (FXa) Inhibitory Action
Method of experiment: 225 μl of a 0.05 M Tris hydrochloride buffer (pH 8.3) containing 0.145 M sodium chloride and 2 mM calcium chloride, 5 μl of a sample (the test compound is dissolved in dimethylsulfoxide), and 10 μl of human FXa (0.3 unit/ml) were added to a 96-well microplate to react at 37° C. for about 10 minutes, and then 10 μl of a substrate (3 mM, S-2765) was added thereto to react at 37° C. for about 10 minutes. Subsequently, 25 μl of a 50% aqueous acetic acid solution was added to terminate the reaction, and then the change in the absorbance at 405 nm was measured with a spectrophotometer to calculate the concentration inhibiting 50% of the FXa action (IC50).

human FXa, sequence (P00742 235-488 limits assumed): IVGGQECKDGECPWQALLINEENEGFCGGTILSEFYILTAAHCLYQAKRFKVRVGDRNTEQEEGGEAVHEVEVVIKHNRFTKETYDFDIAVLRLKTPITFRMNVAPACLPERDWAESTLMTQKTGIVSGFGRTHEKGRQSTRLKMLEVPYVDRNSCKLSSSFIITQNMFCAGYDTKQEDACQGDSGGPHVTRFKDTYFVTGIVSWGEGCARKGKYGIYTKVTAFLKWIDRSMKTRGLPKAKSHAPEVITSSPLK
human FXa, sequence (P00742 41-179 partner limits assumed): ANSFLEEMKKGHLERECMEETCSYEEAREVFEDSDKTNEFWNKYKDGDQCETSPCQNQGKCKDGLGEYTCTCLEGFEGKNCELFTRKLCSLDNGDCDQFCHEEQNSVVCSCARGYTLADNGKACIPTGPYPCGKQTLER

Work on Cc1ncc2n1C(=O)N(N1CCN(C(=O)[C@H](NC(=O)Nc3ccc(Cl)cc3)C(C)(C)C)CC1)C2 [Example 20, N—(4-chlorophenyl)—N′—((1R)-2,2-dimethyl-1-((4-(5-methyl-3-oxo-1H-imidazo[1,5-c]imidazol-2(3H)-yl)-1-piperazinyl)carbonyl)propyl)urea] yielded a pIC50 of 7.74.

CCC(O)(CC)C(NC(=O)Nc1ccc(Cl)cc1)C(=O)N1CCN(N2Cc3cnc(C)n3C2=O)CC1 (stereo not shown) [Example 37, N—(4-chlorophenyl)—N ′—(2-ethyl-2-hydroxy-1-((4-(5-methyl-3-oxo-1H-imidazo[1,5-c]imidazol-2(3H)-yl)-1-piperazinyl)carbonyl)butyl)urea] was tested, and the pIC50 was 7.59.

Compound CSC(C)(C)[C@@H](NC(=O)Nc1ccc(Cl)cc1)C(=O)N1CCN(N2Cc3cnc(C)n3C2=O)CC1 [Example 40, N—(4-chlorophenyl)—N′—((1S)-2-methyl-1-((4-(5-methyl-3-oxo-1H-imidazo[1,5-c]imidazol-2(3H)-yl)-1-piperazinyl)carbonyl)-2-(methylthio)propyl)urea] has a pIC50 of 8.00.

In the case of COC(C)(C)C(NC(=O)Nc1ccc(Cl)cc1)C(=O)N1CCN(N2Cc3cnc(C)n3C2=O)CC1 (stereo not shown) [Example 74, N-(4-chlorophenyl)-N′-(2-methoxy-2-methyl-1-((4-(5-methyl-3-oxo-1H-imidazo[1,5-c]imidazol-2(3H)-yl)-1-piperazinyl)carbonyl)propyl)urea], the pIC50 was 7.30.
